The values below are quoted from earlier work in patent US11439578B2, “Agent for dyeing hair, containing at least one organic silicon compound, a coloring compound and a film-forming, hydrophilic polymer” (Henkel AG & Co. KGaA, priority 2018, dated 2022).

Structures are written as SMILES.

For the data set the following is noted: about 25° C.

As for `CCN(Cc1cccc(S(=O)(=O)[O-])c1)c1ccc(C(=C2C=CC(=[N+](CC)Cc3cccc(S(=O)(=O)[O-])c3)C=C2)c2ccccc2S(=O)(=O)[O-])cc1.[Na+].[Na+]` [Acid Blue 9], the solubility in water entry is on record as “more than 20 % by weight”.

With `O=S(=O)([O-])c1ccc(N=Nc2c(O)ccc3ccccc23)cc1.[Na+]` [Acid Orange 7, sodium salt of 4-[(2-hydroxy-1-naphthyl)azo]benzene sulphonate], the solubility in water result is on record as “more than 7 g/L”. In the case of `Nc1cc(S(=O)(=O)[O-])cc2cc(S(=O)(=O)[O-])c(N=Nc3ccccc3)c(O)c12.[Na+].[Na+]` [Acid Red 33, disodium salt of 5-amino-4-hydroxy-3-(phenylazo)-naphthalene-2,7-disulphonate], the solubility in water entry is recorded as “about 2.5 g/L”. For the compound `O=C([O-])c1c(Cl)c(Cl)c(Cl)c(Cl)c1-c1c2c(Br)cc(=O)c(Br)c-2oc2c(Br)c(O)cc(Br)c12.O=C([O-])c1c(Cl)c(Cl)c(Cl)c(Cl)c1-c1c2c(Br)cc(=O)c(Br)c-2oc2c(Br)c(O)cc(Br)c12.[Na+].[Na+]` [Acid Red 92, disodium salt of 3,4,5,6-tetrachloro-2-(1,4,5,8-tetrabromo-6-hydroxy-3-oxoxanthen-9-yl)benzoic acid], the solubility in water entry is given as “greater than 10 g/L”. Consider `O=C([O-])C1=NN(c2ccc(S(=O)(=O)[O-])cc2)C(=O)C1N=Nc1ccc(S(=O)(=O)[O-])cc1.[Na+].[Na+].[Na+]` (centres unmarked) [Acid Yellow 23, trisodium salt of 4,5-dihydro-5-oxo-1-(4-sulfophenyl)-4-((4-sulfophenyl)azo)-1H-pyrazole-3-carboxylic acid], for which the “solubility in water (in words)” value was “highly soluble in water”.
